Laboratory results reported in US20170290890A1, “STIMULATION OF OVARIAN FOLLICLE DEVELOPMENT AND OOCYTE MATURATION” (The Board of Trustees of the Leland Stanford Junior …, priority 2014, published 2017).

Key:
Ovaries from day 10 mice [1] = assay: Ovarian explant culture and follicle counting; format: cell-based; conditions: explant culture 4 days
Experimental: We treated ovaries from day 10 mice with increasing doses of MHY1485 using an explant culture model.
Ovaries from day 10 mice were placed on culture plate inserts (Millipore) and cultured in 400 μl of DMEM/F12 containing 0.1% BSA, 0.1% Albumax II, insulin-transferrin-selenium, 0.05 mg/ml L-ascorbic acid and penicillin-streptomycin under a membrane insert to cover ovaries with a thin layer of medium. Ovaries were treated with 1-10 μM of MHY1485 and cultured for 4 days with medium change after 2 days of culture. At the end of culture, ovaries were fixed with formalin before weighing. Some ovaries were paraffin-embedded and cut into continuous sections. Sections were stained with hematoxylin and eosin for follicle counting, and only follicles with clearly stained oocyte nucleus were counted to avoid recounting of the same follicle.

oocytes = assay: In vitro fertilization and embryo transfer of oocytes from pretreated grafts; format: in vivo, mice
Experimental: (§1) Using this model, we further treated the hosts with eCG for 2 days to promote the growth of preovulatory follicles, followed by an injection of hCG to promote oocyte maturation. At 12 h after hCG injection, mature oocytes were punctured from preovulatory follicles for in vitro fertilization.
Ovaries from B6D2F1 mice at 10 days of age were treated with 10 μM MHY1485 for 2 days, followed by transplantation into kidney capsules of hosts for 5 days. At day 5 after transplantation, animals were treated with 10 IU equine chorionic gonadotropin (eCG) for 48 h, followed by an injection of 10 IU human chorionic gonadotropin (hCG). Twelve hour later, grafts were collected and oocytes were retrieved in the M2 medium (Cytospring, Mountain View, Calif.). As controls, B6D2F1 mice at day 25 of age were treated with 5 IU eCG for 48 h, followed by 5 IU hCG before oocyte retrieval. For in vitro fertilization, sperm from B6D2F1 male mice were collected into human tubal fluid medium (Cytospring) and pre-incubated for 1 h at 37 C. Oocytes were then fertilized with sperm (2-3×10^5/ml) for 6 h, and inseminated oocytes were transferred into KSOM medium (Cytospring) for development into blastocysts. For embryo transfer, two-cell embryos were transferred into oviducts of pseudopregnant, 8-week-old CD1 nice pre-mated with vasectomized males of the same strain.

Ovaries from day 10 mice [2] = assay: Ovarian tissue grafting (in vitro treatment then allo-transplantation under kidney capsules); format: in vivo; conditions: 2 days in vitro treatment
Experimental: as §1
At the end of transplantation, grafts were collected for weight determination and histological analysis. For some animals, ovaries from day 10 mice were treated with IVA drugs (PTEN inhibitor: (bpv(hopic) at 30 μM for the first day and an activator for phosphoinositol-3-kinase 740YP at 150 μg/mL for two days) before grafting.

mTOR signaling pathway = assay: Immunoblotting of mTOR pathway protein phosphorylation in ovaries; format: cell-based, mice; conditions: day 10 mouse ovaries, 3 h, 10 μM, FIG. 1A
Experimental: Ovaries from day 10 mice were incubated for 3 h with 10 μM of MHY1485 before immunoblotting analyses. […] Activated mTORC1 complex phosphorylates Thr389 in ribosomal S6 kinase (S6K), thereby activating it to subsequently phosphorylate ribosomal protein S6 (rpS6) and promote ribosome biogenesis. We further monitored S6K1 and rpS6 phosphorylation in ovarian tissues.
Ovaries from mice at day 10 of age were treated with MHY1485 (Millipore, Bedford, Mass.) for 3 h and proteins were extracted using M-PER Mammalian Protein Extraction Reagent (Thermo, Rockford, Ill.) containing a protease inhibitor cocktail (Thermo). Protein concentrations in supernatants were determined by the bicinchoninic acid method (Pierce, Rockford, Ill., USA). Equal amounts of protein lysates were loaded on 4-12% NuPAGE Bis-Tris gels (Invitrogen, Carlsbad, Calif.) in MOPS buffer and transferred to […] pore nitrocellulose membranes (LI-COR, Lincoln, Nebr., USA). First antibodies were from Cell Signaling (Beverly, Mass.) and rabbit secondary antibodies from LI-COR. Images were generated using a LI-COR Odyssey infrared imager.

PTEN = PTEN (Homo sapiens, UniProt P60484); conditions: cited from earlier work
Sequence of PTEN (P60484 whole entry): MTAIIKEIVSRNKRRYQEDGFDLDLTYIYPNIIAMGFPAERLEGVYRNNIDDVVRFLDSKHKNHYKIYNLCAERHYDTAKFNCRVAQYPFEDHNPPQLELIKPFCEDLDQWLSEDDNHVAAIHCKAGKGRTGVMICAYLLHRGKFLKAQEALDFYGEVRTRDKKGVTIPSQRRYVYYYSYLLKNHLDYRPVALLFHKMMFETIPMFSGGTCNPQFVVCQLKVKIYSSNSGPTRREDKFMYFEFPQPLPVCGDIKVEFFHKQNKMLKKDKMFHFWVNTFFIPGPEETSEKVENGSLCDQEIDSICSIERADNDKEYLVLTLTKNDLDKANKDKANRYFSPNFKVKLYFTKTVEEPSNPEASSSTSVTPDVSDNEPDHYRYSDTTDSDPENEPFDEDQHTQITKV

PTP = conditions: cited from earlier work
[3] = grafts 5 days with FSH, FIG. 2C

With O=[N+]([O-])c1ccc(Nc2nc(N3CCOCC3)nc(N3CCOCC3)n2)cc1 [MHY1485, 4,6-Di-4-morpholinyl-N-(4-nitrophenyl)-1,3,5-triazin-2-amine] the ovarian weights (Ovaries from day 10 mice [1]; 1-10 μM, FIG. 1B) was “dose-dependent increases”, the “follicle growth (histology, follicle counting)” value (Ovaries from day 10 mice [1]; FIG. 1C, 1D) was “enhancement of follicle growth from early secondary to the late secondary stage” and the “development of oocytes after in vitro fertilization” value (oocytes; 10 μM 2 days, graft 5 days, eCG then hCG, oocytes fertilized, FIG. 3A) was “could develop into blastocysts”. The “outcome of 2-cell embryo transfer into pseudopregnant surrogate mothers” value (oocytes; FIG. 3C) was “healthy pups were delivered”, the “early embryonic development vs oocytes from day 25 mice (controls)” value (oocytes; percentage of oocytes developing into each embryonic stage, FIG. 3B) was “comparable early embryonic development” and the graft weights (Ovaries from day 10 mice [2]; grafted into adult hosts, daily FSH 5 days, FIG. 2A) was “increased”. For the same molecule, the antral/preovulatory follicles (Ovaries from day 10 mice [2]; grafts 5 days with FSH, FIG. 2B, 2C) was “increases in the development of antral/preovulatory follicles”, the early secondary follicles (Ovaries from day 10 mice [2]; [3]) was “decrease of early secondary follicles” and the primary follicles (Ovaries from day 10 mice [2]; [3]) was “increase of primary follicles”. For the same molecule, the phospho-mTOR levels (mTOR signaling pathway) was “increased”, the “phosphorylation of S6K1” value (mTOR signaling pathway) was “increased” and the “phosphorylation of rpS6” value (mTOR signaling pathway) was “increased”.
For O=C([O-])c1ccccn1.OO.OO.[K+].[K+].[OH-].[V] [dipotassium bisperoxo(picolinato)oxovanadate (V)], the IC50 (PTEN) is given as 31 nM.
In the case of OO.OO.[K+].[OH-].[V].c1cnc2c(c1)ccc1cccnc12 [potassium bisperoxo (1,10-phenanthroline)oxovanadate (V)], the IC50 (PTEN) is given as 38 nM.
In the case of “dipotassium bisperoxo(5-hydroxypyridine-2-carboxyl)oxovanadate (V)”, the IC50 (PTEN) is listed as 14 nM.
For monoperoxo(picolinato)oxovanadate(V), the IC50 (PTP) is given as 18000 nM.
In the case of “potassium bisperoxo(bipyridine)oxovanadate (V)”, the IC50 (PTEN) is given as 18 nM.
